Test system: SARS-CoV-2
Assay: microbe, parasite or virus in culture
Conditions: Severe acute respiratory syndrome coronavirus 2, Vero, read-out: SARS-CoV-2 IC50

SMILES	IC50
COc1cccc(Nc2nc3cc(Cl)ccc3c(=O)[nH]2)c1 [Compound 9h]	> 11 µM
CCCCNc1nc2cc(Cl)ccc2c(=O)[nH]1 [Compound 9p]	> 14 µM
O=c1[nH]c(N2CCCCC2)nc2cc(Cl)ccc12 [Compound 9q]	> 14 µM
O=c1[nH]c(Nc2cc(Cl)cc(Cl)c2)nc2cc(Cl)ccc12 [Compound 9g, 7-chloro-2-((3,5-dichlorophenyl)amino)quinazolin-4(3H)-one]	< 0.25 µM
CC(C)Nc1nc2cc(Cl)ccc2c(=O)[nH]1 [Compound 9o]	> 14 µM
O=c1[nH]c(Nc2cc(Cl)cc(Cl)c2)nc2cccc(O)c12 [Compound 11e, 2-((3,5-dichlorophenyl)amino)-5-hydroxyquinazolin-4(3H)-one]	< 0.25 µM
O=c1[nH]c(NCC2CCCCC2)nc2cc(Cl)ccc12 [Compound 9n]	> 14 µM

Test system: not listed separately
Assay: in vivo
Conditions: rat, po, 10 mg/kg

SMILES	Cmax
O=c1[nH]c(Nc2cc(Cl)cc(Cl)c2)nc2cccc(O)c12 [Compound 11e, 2-((3,5-dichlorophenyl)amino)-5-hydroxyquinazolin-4(3H)-one]	60 ng/mL

Biological target: CYP3A4 (Homo sapiens, UniProt P08684)
Assay: CYP inhibition assay, 3A4
Format: in vitro ADME
Conditions: not given

Chain of CYP3A4 (P08684 whole entry): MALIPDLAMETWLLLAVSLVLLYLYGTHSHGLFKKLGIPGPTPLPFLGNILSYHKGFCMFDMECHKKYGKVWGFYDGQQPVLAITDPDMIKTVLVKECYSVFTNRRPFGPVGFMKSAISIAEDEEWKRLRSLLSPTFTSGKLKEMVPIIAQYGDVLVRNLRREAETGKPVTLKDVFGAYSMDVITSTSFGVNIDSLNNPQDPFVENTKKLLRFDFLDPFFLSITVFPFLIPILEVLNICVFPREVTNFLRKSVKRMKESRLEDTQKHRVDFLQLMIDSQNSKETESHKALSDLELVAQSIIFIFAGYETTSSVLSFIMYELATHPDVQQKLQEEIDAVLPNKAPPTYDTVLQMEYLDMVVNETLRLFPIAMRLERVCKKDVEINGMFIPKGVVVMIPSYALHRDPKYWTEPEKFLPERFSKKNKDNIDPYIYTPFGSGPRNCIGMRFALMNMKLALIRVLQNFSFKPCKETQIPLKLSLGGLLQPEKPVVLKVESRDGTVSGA

SMILES	inhibition at 10 µM
O=c1[nH]c(Nc2cc(Cl)cc(Cl)c2)nc2cccc(O)c12 [Compound 11e, 2-((3,5-dichlorophenyl)amino)-5-hydroxyquinazolin-4(3H)-one]	> 65%

Test system: SARS-CoV-2
Assay: not given
Conditions: not given

SMILES	SARS-CoV-2 IC50
O=c1[nH]c(Nc2ccc(F)cc2F)nc2cc(Cl)ccc12 [Compound 9d]	no activity
O=c1[nH]c(Nc2cc(Cl)cc(Cl)c2)nc2cc(O)ccc12 [Compound 11g]	no inhibitory effects
COc1cccc2nc(Nc3cc(F)cc(F)c3)[nH]c(=O)c12 [Compound 10d]	no inhibitory effects
Nc1ccc2c(=O)[nH]c(Nc3cc(Cl)cc(Cl)c3)nc2c1 [Compound 11c]	no inhibitory effects
O=c1[nH]c(Nc2ccc(F)cc2)nc2cc(Cl)ccc12 [Compound 9c]	no inhibitory effect
Nc1ccc2c(=O)[nH]c(Nc3cc(F)cc(F)c3)nc2c1 [Compound 10c]	no inhibitory effects
Cc1cc(C)c2nc(Nc3cc(F)cc(F)c3)[nH]c(=O)c2c1 [Compound 10h]	no inhibitory effects
O=c1[nH]c(Nc2ccccc2F)nc2cc(Cl)ccc12 [Compound 9a]	no inhibitory effect
O=c1[nH]c(Nc2cc(Cl)cc(Cl)c2)nc2cc(N3CCOCC3)ccc12 [Compound 11k]	no anti-SARS-CoV-2 activity
Cc1cc(C)c2nc(Nc3cc(Cl)cc(Cl)c3)[nH]c(=O)c2c1 [Compound 11h, 2-((3,5-Dichlorophenyl)amino)-6,8-dimethylquinazolin-4(3H)-one]	no inhibitory effects
O=c1[nH]c(Nc2cc(F)cc(F)c2)nc2cc(O)ccc12 [Compound 10g]	no inhibitory effects
COc1cccc2nc(Nc3cc(Cl)cc(Cl)c3)[nH]c(=O)c12 [Compound 11d]	no inhibitory effects

Biological target: T1, CYP1A2 (Homo sapiens, UniProt P05177)
T1 sequence (P05177 1-516): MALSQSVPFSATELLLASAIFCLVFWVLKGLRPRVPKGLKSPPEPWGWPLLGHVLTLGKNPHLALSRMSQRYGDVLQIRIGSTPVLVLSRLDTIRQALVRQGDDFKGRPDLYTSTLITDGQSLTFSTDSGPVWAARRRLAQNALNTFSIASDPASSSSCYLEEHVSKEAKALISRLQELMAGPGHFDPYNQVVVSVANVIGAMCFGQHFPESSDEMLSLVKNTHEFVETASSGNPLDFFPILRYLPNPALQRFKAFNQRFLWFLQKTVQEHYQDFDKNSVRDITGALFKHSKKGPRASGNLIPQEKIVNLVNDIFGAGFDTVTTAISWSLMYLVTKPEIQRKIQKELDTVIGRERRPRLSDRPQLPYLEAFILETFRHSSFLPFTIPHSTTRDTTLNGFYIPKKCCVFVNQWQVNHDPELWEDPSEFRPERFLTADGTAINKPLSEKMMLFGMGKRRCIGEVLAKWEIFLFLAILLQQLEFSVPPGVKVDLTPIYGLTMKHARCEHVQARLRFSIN
Assay: CYP inhibition assay, 1A2
Format: in vitro ADME
Conditions: not given

SMILES	inhibition at 10 µM
O=c1[nH]c(Nc2cc(Cl)cc(Cl)c2)nc2cccc(O)c12 [Compound 11e, 2-((3,5-dichlorophenyl)amino)-5-hydroxyquinazolin-4(3H)-one]	> 65%

From publication PMC7920804 (Bioorganic & Medicinal Chemistry Letters, 2021)
